Test results: US11547957B2, “Method of maintaining narrow residence time distributions in continuous flow systems” (EMD Millipore Corporation, priority 2017, dated 2023)

Tested on: Phi6 bacteriophage virus
Test: Static detergent-based virus inactivation, infectivity by plaque assay
Type: cell-based
Conditions: mAb 15 mg/mL, 22-25° C.; for Time to Complete Inactivation: Phi6
Description: The purpose of this study was to examine detergent-based virus inactivation kinetics. In this representative experiment, two different concentrations (0.1% and 1.0% v/v) of a detergent, Triton X-100 were used to inactivate a bacteriophage virus, Phi6. The objective was to determine the exposure time required for complete inactivation.
A monoclonal antibody was purified by standard Protein A chromatography and prepared at a concentration of 15 mg/mL. The virus spike was added and vortexed to ensure a well-mixed system. The Phi6 target spike level was 1×10^8 pfu/mL. Detergent was added to reach the desired concentrations of 0.1% and 1.0% v/v. At various time points, a sample was removed and quenched by adding it to buffer at a 1:1000 dilution ratio. The tubes were vortexed after the detergent addition. These experiments were carried out at room temperature, 22-25° C. Control samples at the initial and final time points were also analyzed. The control samples were diluted similarly to the actual samples using the background buffer.

Substance: Triton X-100
- Time to Complete Inactivation (0.1% v/v Triton X-100): ≤1 min
- Time to Complete Inactivation (0.1% v/v Triton X-100, listed as Triton X100): ≤ 1 min
- Phi6 LRV (0.1% v/v Triton X-100, inactivation time 1 min): ≥5.2
- Phi6 LRV (0.1% v/v Triton X-100, inactivation time 2 min): ≥5.2
- Phi6 LRV (0.1% v/v Triton X-100, inactivation time 3 min): ≥5.2
- Phi6 LRV (0.1% v/v Triton X-100, inactivation time 4 min): ≥5.2
- Phi6 LRV (0.1% v/v Triton X-100, inactivation time 5 min): ≥5.2
- Phi6 LRV (0.1% v/v Triton X-100, inactivation time 15 min): ≥5.2
- Phi6 LRV (0.1% v/v Triton X-100, inactivation time 30 min): ≥5.2
- Time to Complete Inactivation (1.0% v/v Triton X-100): ≤1 min
- Time to Complete Inactivation (1.0% v/v Triton X-100, listed as Triton X100): ≤ 1 min
- Phi6 LRV (1.0% v/v Triton X-100, inactivation time 1 min): ≥6.2
- Phi6 LRV (1.0% v/v Triton X-100, inactivation time 2 min): ≥6.2
- Phi6 LRV (1.0% v/v Triton X-100, inactivation time 3 min): ≥6.2
- Phi6 LRV (1.0% v/v Triton X-100, inactivation time 4 min): ≥6.2
- Phi6 LRV (1.0% v/v Triton X-100, inactivation time 5 min): ≥6.2
- Phi6 LRV (1.0% v/v Triton X-100, inactivation time 15 min): ≥6.2
- Phi6 LRV (1.0% v/v Triton X-100, inactivation time 30 min): ≥6.2
